The record followed here is US9187496B2 (priority 2009, dated 2015).

In series [1] the test system is Huh-7 cells containing HCV Con1 subgenomic replicon (GS4.1 cells). In words: HCV replicon assay (NS5A ELISA). The format is cell-based. Particulars: Hepatitis C virus, Huh-7; GS4.1 cells, 72 hrs, NS5A ELISA; read-out: EC50. The protocol: General Procedure: Huh-7 cells containing HCV Con1 subgenomic replicon (GS4.1 cells) were grown in Dulbecco's Modified Eagle Medium (DMEM) supplemented with 10% fetal bovine serum (FBS), 2 mM L-glutamine, 110 mg/L sodium pyruvate, 1× non-essential amino acids, 100 U/mL penicillin-streptomycin, and 0.5 mg/mL G418 (Invitrogen). For dose-response testing, the cells were seeded in 96-well plates at 7.5×10^3 cells/well in a volume of 50 μL, and incubated at 37° C./5% CO2. Three hours after plating, 50 μL of ten 2-fold serial dilutions of compounds (highest concentration, 75 μM) were added, and cell cultures were incubated at 37° C./5% CO2 in the presence of 0.5% DMSO. Alternatively, compounds were tested at a single concentration of 15 μM. In all cases, Huh-7 cells lacking the HCV replicon served as negative control. The cells were incubated in the presence of compounds for 72 hrs after which they were monitored for expression of the NS5A protein by enzyme-linked immunosorbent assay (ELISA). For this, the plates were then fixed for 1 min with acetone/methanol (1:1, v/v), washed twice with phosphate-buffered saline (PBS), 0.1% Tween 20, blocked for 1 hr at room temperature with TNE buffer containing 10% FBS and then incubated for 2 hr at 37° C. with the anti-NS5A mouse monoclonal antibody A-236 (ViroGen) diluted in the same buffer. After washing three times with PBS, 0.1% Tween 20, the cells were incubated 1 hr at 37° C. with anti-mouse immunoglobulin G-peroxidase conjugate in TNE, 10% FBS. After washing as described above, the reaction was developed with O-phenylenediamine (Zymed). The reaction was stopped after 30 min with 2 N H2SO4, and absorbance was read at 492 nm using Sunrise Tecan spectrophotometer. EC50 values were determined from the % inhibition versus concentration data using a sigmoidal non-linear regression analysis based on four parameters with Tecan Magellan software.

For another series, the system named is GS4.1 cells. The experiment in a line: Cytotoxicity evaluation in GS4.1 cells (Cell Titer 96 AQueous One). The format is cell-based, human. The settings on record: cellular viability. The protocol:
For cytotoxicity evaluation, GS4.1 cells were treated with compounds as described above and cellular viability was monitored using the Cell Titer 96 AQueous One Solution Cell Proliferation Assay (Promega). CC50 values were determined from the % cytotoxicity versus concentration data with Tecan Magellan software as described above.

For series [2], the system named is HCV genotype 1b Conl strain subgenomic luciferase replicon (Zluc). The experiment in a line: Luciferase replicon assay, genotype 1b. The settings on record: Hepatitis C virus, 72 h, read-out: EC50 1b. The format is cell-based. The method, then: (§1) The HCV luciferase replicon assay measures the ability of a test compound to inhibit HCV replication in cell culture after 3 days of treatment in a human hepatoma cell line (Huh-7) bearing a HCV replicon containing a luciferase-neomycin phosphotransferase fusion gene. The inhibition of HCV replication was measured by quantification of luciferase protein expression. Briefly, Huh-7 cells containing either the HCV genotype 1a H77 strain or genotype 1b Conl strain subgenomic luciferase replicon (H1a-luc or Zluc, respectively) were grown in DMEM containing glucose, L-glutamine and sodium pyruvate, 10% fetal bovine serum (FBS), 100 IU/mL penicillin, 100 μg/mL streptomycin, 2 mM GlutaMAX, non-essential amino acids and 0.25 (H1a-luc) or 0.5 (Zluc) mg/mL G418. GlutaMAX was obtained from Invitrogen, Corp.; all other media reagents were obtained from Mediatech, Inc. For dose-response testing, the cells were seeded in 96-well plates at 1×10^4 (H1a-luc) or 7.5×10^3 (Zluc) cells/well in a volume of 50 μL, and incubated at 37° C./5% CO2. Three hours after plating, 50 μL of ten 5-fold serial dilutions of compound were added, and cell cultures were incubated at 37° C./5% CO2 for 72 hours. In all cases, Huh-7 cells lacking the HCV replicon served as negative control. To assess luciferase expression, the media/compound was removed from the plates and ONE-glo Luciferase assay reagent (Promega) was added to each well. The assay plates were shaken for 3 minutes at room temperature and luciferase activity for each well was measured with a 1 sec read time on the Victor^3V multilabel counter using a 700 nm cut-off filter (Perkin Elmer). EC50 values were calculated from dose response curves from the resulting best-fit equations determined by Microsoft Excel and XLfit 4.1 software.

For series [3], the system named is HCV genotype 2a-specific NS5A gene within the 1b-replicon. In words: Luciferase replicon assay, NS5A-intergenotypic stable cell line genotype 2a. Particulars: Hepatitis C virus, read-out: EC50 2a. The format is cell-based.
Excerpt: (§2) The nucleotide sequences of the NS5A region of genotype 2a (GenBank Accession #AB047639), genotype 3a (GenBank Accession #D17763), and genotype 4a (GenBank Accession#DQ418788) were synthesized by an outside vendor. The NS5A region of each of these genotypes included the first 11 amino acids of the protease recognition sequence of genotype 1b, as well as the last 10 amino acids of genotype 1b. The NS5A gene cassettes were excised with site specific restriction endonucleases and ligated into a ZS11-luciferase genotype 1b backbone (backbone contains the genotype 1b NS3 protease, NS4a, NS4b, and NS5b coding regions) with similarly cut restriction enzyme sites. Thus, the newly constructed plasmid contains a genotype 2a-, 3a- or 4a-specific NS5A gene within the 1b-replicon.
(§3) These new intergenotypic plasmids were used to establish stable cell lines. RNA was generated from the NS5A intergenotypic plasmids and used in conjunction with a lipofectin reagent to transfect a cured Huh7 cell line. Transfected cells were selected for with G418. After selection has occurred the stable cell lines were propagated, tested for luciferase activity, and RT-PCR with genotype specific primers (either 1a, 2a, 3a, or 4a). Stable cell lines containing the intergenotypic replicon were then fully sequenced and analysed for proper expression of NS3, NS5A and NS5B proteins.
(§4) Drug titration analysis was performed using the luciferase replicon assay described herein.
as §1
Background: In antiviral work, replicon cells carry a viral genome segment that copies itself.

Series [4] relates to HCV genotype 3a-specific NS5A gene within the 1b-replicon. In words: Luciferase replicon assay, NS5A-intergenotypic stable cell line genotype 3a. Particulars: Hepatitis C virus, read-out: EC50 3a. The format is cell-based.
Excerpt: as §2, §3, §4, §1

The subject of series [5] is HCV genotype 4a-specific NS5A gene within the 1b-replicon. In words: Luciferase replicon assay, NS5A-intergenotypic stable cell line genotype 4a. The format is cell-based. Particulars: Hepatitis C virus, read-out: EC50 4a.
Excerpt: as §2, §3, §4, §1

A short description of series [6]: Cytotoxicity evaluation in luciferase replicon cells (Cell Titer 96 AQueous One). The format is cell-based, human. The settings on record: human; Table 1B, cellular viability. The protocol: For cytotoxicity evaluation, H1a-luc or Zluc cells were treated with compounds as described above and cellular viability was monitored using the Cell Titer 96 AQueous One Solution Cell Proliferation Assay (Promega). Plates were then read at 490 nm in a Victor^3V 1420 multilabel counter (Perkin Elmer) and CC50 concentrations were determined using Microsoft Excel and XLfit 4.1 software.

For the compound `COC(=O)N[C@H](C(=O)N1CCC[C@H]1c1ncc(-c2ccc(-c3csc4c(-c5cnc([C@@H]6CCCN6C(=O)[C@H](NC(=O)OC(C)(C)C)c6ccccc6)[nH]5)csc34)cc2)[nH]1)C(C)C` [Compound A111, [(S)-1-((S)-2-{4-[4-(6-{(S)-2-[1-((R)-2-tert-butoxycarbonylamino-2-phenyl-acetyl)-pyrrolidin-2-yl]-3H-imidazol-4-yl}-thieno[3,2-b]thiophen-3-yl)-phenyl]-1H-imidazol-2-yl}-pyrrolidine-1-carbonyl)-2-methyl-propyl]-carbamic acid methyl ester], the 50% effective concentration (EC50) in series [1] was under 1 nM; in series [2], under 0.1 nM; in series [3] it was under 0.1 nM; in series [4], under 0.1 nM; in series [5], under 0.1 nM. The compound also gave a 50% cytotoxic concentration (CC50) in the series on GS4.1 cells of over 75000 nM. In series [6], this compound had a cytotoxic concentration (CC50) at 72 h of over 75000 nM.
As to `COC(=O)N[C@H](C(=O)N1CCC[C@H]1c1ncc(-c2ccc(-c3csc4c(-c5ccc6[nH]c([C@@H]7CCCN7C(=O)[C@@H](NC(=O)OC)C(C)C)nc6c5)csc34)cc2)[nH]1)C(C)C` [Compound A171, [(S)-1-((S)-2-{4-[4-(6-{2-[(S)-1-((S)-2-methoxycarbonylamino-3-methyl-butyryl)-pyrrolidin-2-yl]-3H-benzoimidazol-5-yl}-thieno[3,2-b]thiophen-3-yl)-phenyl]-1H-imidazol-2-yl}-pyrrolidine-1-carbonyl)-2-methyl-propyl]-carbamic acid methyl ester], the EC50 was under 0.1 nM in series [2], 0.1 to 1 nM in series [3], 1 to 10 nM in series [4] and under 0.1 nM in series [5]. In series [6], this compound came in with a CC50 at 72 h of over 75000 nM.
`COC(=O)N[C@H](C(=O)N1CCC[C@H]1c1ncc(-c2ccc(-c3csc4c(-c5ccc6[nH]c([C@@H]7CCCN7C(=O)[C@H](NC(=O)OC)c7ccccc7)nc6c5)csc34)cc2)[nH]1)C(C)C` [Compound A172, [(S)-1-((S)-2-{5-[4-(6-{(S)-2-[1-((R)-2-methoxycarbonylamino-2-phenyl-acetyl)-pyrrolidin-2-yl]-3H-benzoimidazol-5-yl}-thieno[3,2-b]thiophen-3-yl)-phenyl]-1H-imidazol-2-yl}-pyrrolidine-1-carbonyl)-2-methyl-propyl]-carbamic acid methyl ester]: the EC50 in series [2], in series [3], in series [4] and in series [5] was under 0.1 nM each time. In series [6], this compound returned a CC50 at 72 h of over 75000 nM.
Regarding `COC(=O)N[C@H](C(=O)N1CCC[C@H]1c1ncc(-c2csc3c(-c4ccc5[nH]c([C@@H]6CCCN6C(=O)[C@@H](NC(=O)OC)C(C)C)nc5c4)csc23)[nH]1)C(C)C` [Compound A173, ((S)-1-{(S)-2-[6-(6-{(S)-2-[1-((S)-2-methoxycarbonylamino-3-methyl-butyryl)-pyrrolidin-2-yl]-1H-imidazol-4-yl}-thieno[3,2-b]thiophen-3-yl)-1H-benzoimidazol-2-yl]-pyrrolidine-1-carbonyl}-2-methyl-propyl)-carbamic acid methyl ester], the concentration for a half-maximal effect (EC50) is under 0.1 nM in series [2], 1 to 10 nM in series [3], 1 to 10 nM in series [4] and 1 to 10 nM in series [5]. In series [6], this compound yielded a CC50 at 72 h of 10000 to 75000 nM.
Take `COC(=O)N[C@H](C(=O)N1CCC[C@H]1c1ncc(-c2ccc(-c3csc4c(-c5cnc([C@@H]6CCCN6C(=O)[C@H](NC(=O)OC)c6ccccc6)[nH]5)csc34)cc2)[nH]1)C(C)C` [Compound A200, [(S)-1-((S)-2-{4-[4-(6-{2-[(S)-1-((R)-2-methoxycarbonylamino-2-phenyl-acetyl)-pyrrolidin-2-yl]-3H-imidazol-4-yl}-thieno[3,2-b]thiophen-3-yl)-phenyl]-1H-imidazol-2-yl}-pyrrolidine-1-carbonyl)-2-methyl-propyl]-carbamic acid methyl ester]: the concentration giving a half-maximal response (EC50) in series [2], in series [3], in series [4] and in series [5] was under 0.1 nM throughout. This compound also returned a CC50 at 72 h in series [6] of over 75000 nM.
For `COC(=O)N[C@H](C(=O)N1CCCC1c1nc(-c2cc3sc(-c4ccc(-c5cnc([C@@H]6CCCN6C(=O)[C@@H](c6ccccc6)N6CCCCC6)[nH]5)cc4)cc3o2)c[nH]1)C(C)C` (stereo partly drawn) [Compound A212], the EC50 in series [2], in series [3], in series [4] and in series [5] was under 0.1 nM in each case. In addition, in series [6], the half-maximal cytotoxic concentration (CC50) at 72 h fell in the range of 10000 to 75000 nM.
`COC(=O)N[C@H](C(=O)N1CCC[C@H]1c1nc2ccc(-c3cc4sc(-c5ccc(-c6c[nH]c([C@@H]7CCCN7C(=O)[C@H](NC(=O)OC)c7ccccc7)n6)cc5)cc4s3)cc2[nH]1)C(C)C` [Compound A215, [(S)-1-((S)-2-{6-[5-(4-{(S)-2-[1-((R)-2-methoxycarbonylamino-2-phenyl-acetyl)-pyrrolidin-2-yl]-1H-imidazol-4-yl}-phenyl)-thieno[3,2-b]thiophen-2-yl)-1H-benzoimidazol-2-yl}-pyrrolidine-1-carbonyl)-2-methyl-propyl]-carbamic acid methyl ester]: the EC50 in series [2], in series [3], in series [4] and in series [5] was under 0.1 nM in each case. For the same compound, in series [6], the half-maximal cytotoxic concentration (CC50) at 72 h was over 75000 nM.
With `COC(=O)N[C@H](C(=O)N1CCCC1c1ncc(-c2cc3sc(-c4ccc(-c5cnc([C@@H]6CCCN6C(=O)[C@H](NC(=O)OC)c6ccccc6)[nH]5)cc4)cc3s2)[nH]1)C(C)C` (stereo partly drawn) [Compound A217], the concentration giving a half-maximal response (EC50) in series [2], in series [3], in series [4] and in series [5] was under 0.1 nM in each case. This compound also displayed a 50% cytotoxic concentration (CC50) at 72 h in series [6] of over 75000 nM.

The term EC50 denotes the concentration needed to bring the measured effect to its halfway point. A word on the CC50: it is the concentration that lowers cell viability or growth by half.
